Data from patent US8828997B2, “2,3-dihydro-1H-imidazo(1,2-a)pyrimidin-5-one derivatives, preparation thereof, and pharmaceutical use thereof” (Sanofi, priority 2009, dated 2014).

Tests used:
[1] = tested on: AKT protein phosphorylated on serine 473 (P-AKT-S473) in PC3 human prostate carcinoma cells; assay: pAKT expression in PC3 human prostate carcinoma cells measured by MSD Multi-spot Biomarker detection (test B); format: cell-based; conditions: Homo sapiens, PC-3, P-AKT-S473, PC3 cells, MSD sandwich immunoassay, 1 to 2 h incubation, absolute IC50
Summary of the method: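 PC3 cells exposed to compound for 1-2 h at 37 °C (0.1% DMSO; up to 10 μM), lysed, and P-AKT-S473 quantified by electrochemiluminescent sandwich immunoassay. Percent inhibition normalised to DMSO wells with background subtracted. Absolute IC50 from dose-response curves, averaged over 2 experiments.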

[2] = tested on: translocation of the LC3 protein in Hela GFP-LC3 cells; assay: Translocation of the LC3 protein in Hela human cells measured by image analysis cytometry (test C, autophagy); format: cell-based; conditions: Homo sapiens, HeLa, 2 h, EBSS + 10 μM hydroxychloroquine, cells with LC3 granulations, absolute IC50
Summary of the method: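 HeLa clone stably expressing GFP-LC3, starved in EBSS with 10 μM hydroxychloroquine plus compound (10 nM to 1 μM range, 0.1% DMSO) for 2 h at 37 °C. After PFA fixation and Hoechst staining, LC3 translocation read by image analysis cytometry; IC50 from dose-response curves, mean of 2 independent experiments.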

IC50 [1]: 3 nM
IC50 [2]: 44 nM
Compound: COc1ccc(CCN2c3nc(N4CCOCC4)cc(=O)n3C[C@@]2(C)C(F)(F)F)cc1 [Example 1, (S)-1-[2-(4-Methoxyphenyl)ethyl]-2-methyl-7-morpholin-4-yl-2-trifluoromethyl-2,3-dihydro-1H-imidazo[1,2-a]pyrimidin-5-one]
